The source of these data is US6274334A, “Monoclonal antibody, cell line and immunoassay for ractopamine” (The United States of America as represented by the …, priority 2000, dated 2001).

Series [1] has as its system polyclonal antibodies. The following applies: polyclonal antibodies generated from rabbits; cited from earlier work.
The subject of series [2] is hogs. The following applies: dietary, relative to untreated control animals; cited from earlier work.
The conditions of series [3]: Wicker et al. 1995; cited from earlier work.
Series [4] deals with antibody produced by hybridoma 5G10. Briefly: Competitive indirect ELISA for specificity of the 5G10 antibody (buffer). The series is classed as binding, mouse. The following applies: for IC50: means of three separate experiments on three different days, racemic ractopamine average of 15 experiments; for Cross-reactivity: ratio of IC50 for racemic ractopamine to that of test compound times 100; for competition curve: competitors up to 10,000 ng/mL; for poorer ligand relative to (1R,3R) stereoisomer of ractopamine: relative to (1R,3R) ractopamine. The protocol:
The supernatant culture fluid from the cloned hybridomas may also be screened to select for those producing antibodies having a high affinity for ractopamine. Affinity may be measured using a variety of well known techniques, such as ELISA, RIA or equilibrium dialysis using labelled ractopamine. Competitive indirect ELISA (CI-ELISA) is preferred, and is conducted at a final antibody concentration (dilution from tissue culture supernatant) to give 50% of maximal binding to a ractopamine coated substrate or assay well. In accordance with this embodiment, the antibody containing supernatant is added to a ractopamine conjugate-coated solid substrate such as the wells of an assay plate, together with a range of concentrations of free ractopamine as a competitor. Following incubation and washing, bound antibody in the wells is determined in the same manner as the indirect-ELISA. Percent inhibition may be calculated as (1-B/B0)×100 where B is the optical density (OD) of a well with a competitor and B0 is the mean OD of the wells without competitor (control). […] However, for even greater accuracy, the affinity may be alternatively measured at 50% inhibition (IC50).
(§1) The checkerboard method was used to determine the optimum amount of coating antigen-ractopamine-glutarate-BSA (0.1 to 1 μg/well), primary antibody (1:4000 to 1:14,000), and secondary antibody (1:5000 to 1:50,000) required for the indirect competition ELISA. […] Ninety-six well flat bottom ELISA plates were coated with 500 ng/well of ractopamine-glutarate-BSA in 50 mM bicarbonate buffer, pH 9.6, and allowed to shake for 2 hours using an orbital shaker after which the plates were washed 5 times with PBST. Excess binding sites in each well were blocked by incubating with a 1% solution of Teleostean® cold water fish gelatin for 1 hour after which each well was washed 5 times with PBST. Primary antibody (5G10), diluted to 1:14,000, was added (50 μL/well) in the presence of competitor (100 μL/well) and was incubated for 1.5 hours. Competitors were incubated at concentrations of 0, 0.1, 0.5, 1, 5, 10, 50, 100, 500, 1000, 5000, and 10,000 ng/mL. A racemic ractopamine calibration curve was used in every experiment as a quality control. Washing wells five times with PBST terminated the reactions. Goat anti-mouse IgG peroxidase conjugate, diluted 1:50,000 (100 μL/well), was incubated for 1 hour. A TMB substrate solution was used during color development (30 min); the color development was stopped by adding 50 μL/well of 2 N H2 SO4. All incubations were conducted at 37° C. The plates were read at 450 nm and the data analyzed using a four-parameter logistic equation for the competitors that produced competition curves.
(An ELISA detects its analyte on a solid surface through an enzyme-linked reagent.)

The test system of series [5] is 5G10 monoclonal antibody. Briefly: Competitive ELISA in diluted bovine urine (matrix effects). Type of series: binding, mouse. As for the experimental part:
as §1
Ractopamine (0, 0.1, 0.5, 1, 5, 10, 50, 100, 500, 1000, 5000, and 10,000 ng/mL) was added to bovine urine samples diluted 1:2, 1:5, 1:10, and 1:20 with PBST. Urine was collected from a Holstein cow that had not received any ractopamine treatment. Immunoassays in diluted matrices were run according to the procedure described in Example 2. The resulting competition data were fit to a four-parameter logistic equation using the program manager provided by the plate reader (Bio-Rad® Laboratories, Hercules, Calif.) and the IC50 values were determined. The IC50 and B0 from each diluted urine curve were compared with IC50 and B0 values generated from the PBST standard curve. Ractopamine in a 1:10 urine dilution at concentrations of 1, 5, 10, 20 ng/mL were divided and stored at -20° C. until used. For determination of intra-assay variation, each concentration of the spiked urine samples was pipetted into 12 wells, along with the appropriate standard curve ([…], 12 levels) and the data processed using the spiked samples as replicated unknowns. Inter-assay variation was determined in a similar manner on five separate days with duplicate wells for each level of spiked sample.

The subject of series [6] is ractopamine antibody. Briefly: Immunoaffinity column retention. Type of series: binding, mouse. The following applies: C-14 labeled, eluted with 0-100% MeOH. The protocol:
Ten milliliters of acites containing ractopamine antibody were diluted with 0.1 M acetate buffer (1:3) and centrifuged. The diluted ascites was passed through a protein-G column and non-bound material was washed off with 0.1 M acetate buffer, pH 5.0, followed by 0.1 M glycine, pH 2.8 to elute the IgG. The protein concentration was determined by OD280 and confirmed by the method of Bradford. The IgG purity was confirmed by 10% SDS-PAGE. Purified IgG was conjugated with CNBr-Sepharose according to a standard procedure. Five milligrams of IgG was conjugated with 1 mL of CNBr-Sepharose to produce the immunoaffinity beads. The immunoaffinity beads were packed to a screening column. A solution containing approximately equal amounts of C-14 labeled ractopamine and ractopamine glucuronide was applied to the column. The column was subsequently eluted with 0, 10%, 30%, 50%, 70% and 100% MeOH; eluants were collected and counted for C-14 activity to verify recoveries. […] Thus, the ractopamine IAC retained both ractopamine and ractopamine metabolites, and has the potential to be used for the rapid isolation of ractopamine and (or) ractopamine metabolites from solution. Such a technique would have wide application in the preparation of samples undergoing a ractopamine confirmatory assay.

For series [7] the following is noted: in words; cited from earlier work.
For series [8] the following is noted: species dosed with ractopamine HCl; cited from earlier work.

Values joined by “and” are separate entries in the source; they are usually repeats but may differ in a detail not shown here. Equal entries are not always repeated. Structures can show the parent of a compound that is named as a salt.

For orientation: IC50 means the concentration needed to halve the response being measured. Turning to `CC(CCc1ccc(O)cc1)NCC(O)c1ccc(O)cc1` (racemic) [Ractopamine (racemic), (1R*, 3R*), (1R*, 3S*)-4-hydroxy-β-[[[3-(4-hydroxyphenyl)-1-methylpropyl]amino]methyl]-benzenemethanol hydrochloride], the IC50 in series [1] is 4.2 ng/mL; in series [4] (hydrochloride) it was 2.69 ± 0.36 ng/mL; in series [4] (listed as racemic ractopamine, hydrochloride) it was 2.7 ng/mL; in series [5] (buffer (PBST)), 2.49 ng/mL; in series [5] (urine dilution 1:2), 11.58 ng/mL; in series [5] (urine dilution 1:5), 4.62 ng/mL. For the same compound, the IC50 is listed as 3.16 ng/mL in series [5] (urine dilution 1:10) and 3.02 ng/mL in series [5] (urine dilution 1:20). Also, in series [2], the “growth and carcass effects” value is “increased growth rates, feed efficiencies, and greater yields of boneless, closely trimmed retail cuts”. In addition, the “cross-reaction in immunoassay kits” value in series [3] is reported as “cross-react poorly with ractopamine”. In addition, in series [4] (80% B/B0 (IC20)), the limit of detection was 0.5 ng/mL. The Cross-reactivity in series [4] is given as 100%. In series [6], the “retention on immunoaffinity column” value was “The radioactivity was mainly in the 50% and 100% MeOH fractions”.

Turning to `CC(CCc1ccc(O)cc1)NCCc1ccc(O)c(O)c1` (racemic) [Dobutamine], in series [4], the IC50 was determined as 50.3 ± 8.1 ng/mL and the Cross-reactivity is on record as 5.3%.

On to `CC(Cc1ccc(O)cc1)NCC(O)c1cc(O)cc(O)c1` (stereo not drawn) [Fenoterol], for which, in series [4], the IC50 came to 2682 ± 350 ng/mL and the Cross-reactivity was found to be 0.1%.

Take `C[C@H](CCc1ccc(O)cc1)NC[C@@H](O)c1ccc(O)cc1` [(1S, 3R) -ractopamine]: in series [4], the IC50 was 2.00 ± 0.37 ng/mL and the Cross-reactivity was determined as 134%.

On to `COc1ccc(C(O)CNC(C)CCc2ccc(O)cc2)cc1` (stereo not drawn) [LY227273], for which, in series [4], the IC50 was 2.6 ng/mL and 2.62 ± 0.08 ng/mL; the Cross-reactivity stood at 103%.

For `CC(C)(C)NCC(O)c1cc(Cl)c(N)c(Cl)c1` (stereo not drawn) [Clenbuterol], in series [4], the competition curve result is listed as “did not produce competition curves” and the Cross-reactivity was < 0.1%. Moreover, in series [4] (in words), the “cross reaction with the 5G10 antibody” value was “did not cross react with the 5G10 antibody”.

Turning to `C[C@H](CCc1ccc(O)cc1)NC[C@H](O)c1ccc(O)cc1` [(1R, 3R) -ractopamine], the biological activity result in series [7] is “confers biological activity to the molecule”. The detection limit in series [4] (in PBST) stood at 0.1 ng/mL. Moreover, in series [4], the IC50 is given as 0.55 ± 0.09 ng/mL and the Cross-reactivity is 489%.

As for `CC(NCCc1ccc(O)cc1)C(O)c1ccc(O)cc1` (stereo not drawn) [Ritodrine], in series [4], the IC50 was 73.8 ± 4.4 ng/mL and the Cross-reactivity was determined as 3.6%.

With `C[C@@H](CCc1ccc(O)cc1)NC[C@@H](O)c1ccc(O)cc1` [(1S, 3S) -ractopamine], in series [4], the IC50 was 140 ± 23 ng/mL and the Cross-reactivity turned out to be 1.9%.

Consider `CC(CCc1ccc(O[C@@H]2O[C@H](C(=O)O)[C@@H](O)[C@H](O)[C@H]2O)cc1)NCC(O)c1ccc(O)cc1` (single isomer, unassigned) [Ractopamine glucuronide A], for which, in series [4], the IC50 is reported as 263 ± 20 ng/mL, the Cross-reactivity came to 1% and the “poorer ligand relative to (1R,3R) stereoisomer of ractopamine” value was “over 100 times”.

With `C[C@@H](CCc1ccc(O)cc1)NCCc1ccc(O)cc1` [S-des-OH-ractopamine], in series [4], the IC50 is listed as 25.2 ± 1.9 ng/mL and the Cross-reactivity came out at 10.7%.

Consider `CC(CCc1ccc(O[C@@H]2O[C@H](C(=O)O)[C@@H](O)[C@H](O)[C@H]2O)cc1)NCC(O)c1ccc(O)cc1` (single isomer, unassigned) [Ractopamine glucuronide B], for which, in series [4], the IC50 stood at 87.8 ± 5.0 ng/mL, the Cross-reactivity came out at 3.1% and the “poorer ligand relative to (1R,3R) stereoisomer of ractopamine” value was “over 100 times”.

Regarding `OCc1cc(C(O)CNCCCCCCOCCCCc2ccccc2)ccc1O` (stereo not drawn) [Salmeterol], in series [4], the IC50 was 1519 ± 116 ng/mL and the Cross-reactivity is 0.2%.

Take `C[C@@H](CCc1ccc(O)cc1)NC[C@H](O)c1ccc(O)cc1` [(1R, 3S) -ractopamine]: in series [4], the IC50 was determined as 291 ± 32 ng/mL and the Cross-reactivity is on record as 0.9%. Also, the “decrease of antibody binding (factor)” value in series [4] (α-methyl group in (S) configuration) is listed as 100.

As to `CC(CCc1ccc(O)cc1)NCC(O)c1ccc(O[C@@H]2O[C@H](C(=O)O)[C@@H](O)[C@H](O)[C@H]2O)cc1` (stereo partly drawn) [Ractopamine glucuronide C], the identification as metabolite entry in series [8] is “has been identified in various species dosed experimentally with ractopamine HCl”. Besides, in series [4] (in words), the “affinity relative to (1R,3R) ractopamine” value is recorded as “bound to the antibody with an affinity almost as great as (1R,3R) ractopamine”. Also, in series [4], the IC50 stood at 0.70 ± 0.04 ng/mL and the Cross-reactivity is 384%.

Consider `C[C@H](CCc1ccc(O)cc1)NCCc1ccc(O)cc1` [R-des-OH-ractopamine], for which, in series [4], the IC50 turned out to be 1.59 ± 0.09 ng/mL and the Cross-reactivity is on record as 169%.

Turning to `CC(COc1ccccc1)NC(C)C(O)c1ccc(O)cc1` (stereo not drawn) [Isoxsuprine], in series [4], the IC50 was found to be 1391 ± 127 ng/mL and the Cross-reactivity is listed as 0.2%.

For the compound `CCCCNCC(O)c1ccc(O)cc1` (stereo not drawn) [Bamethane], in series [4], the IC50 was found to be 831 ± 11 ng/mL and the Cross-reactivity came out at 0.3%.

Consider `CC(C)(C)NCC(O)c1ccc(O)c(CO)c1` (stereo not drawn) [Salbutamol], for which, in series [4], the competition curve entry was “did not produce competition curves” and the Cross-reactivity is < 0.1%.
